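Interpolation was linear, between the two tested concentrations surrounding the appropriate level; five concentrations were tested over 48 hours in 96-well plates. GI50 marks 50% less growth.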 Active and inactive are the calls of the source. Cut-off read from the data, not from the text of the source: active = GI50 up to about 1.1 µM and inactive = higher.

6 molecules from ChEMBL document CHEMBL1201862, “PubChem BioAssay data set” (2004) can be followed below.

Among the test systems are NCI-H460; OVCAR-8; K562; SK-OV-3; UACC-62; RPMI-8226; HL-60; HOP-92; Malme-3M; SF-295; TK-10; KM-20L2; SK-MEL-28; PC-3; NCI-H23; NCI-H522; DMS-273; M19-MEL; HOP-62; SF-268.
Holding throughout (assay): NCI-60 cell line screen, 48 h

As for `CC1C(=O)C(C)C(c2ccccc2)N(N=O)C1c1ccccc1` (stereo not given), the GI50 in the assay on NCI-H460 is > 592 µM (inactive); with OVCAR-8, > 91.6 µM (inactive); in the assay with K562, > 883 µM (inactive); with SK-OV-3, 37.2 µM (inactive); with UACC-62, > 475 µM (inactive); with RPMI-8226 it was > 724 µM (inactive). Also, the GI50 in the assay on HL-60 was > 724 µM (inactive); in the assay on HOP-92, 24.9 µM (inactive); in the assay on Malme-3M, > 318 µM (inactive); in the assay on SF-295, 48.8 µM (inactive); with TK-10 it was 207 µM (inactive); in the assay on KM-20L2, > 1000 µM (inactive). Besides, the GI50 is > 409 µM (inactive) with SK-MEL-28; 152 µM (inactive) in the assay with PC-3; > 69 µM (inactive) in the assay with NCI-H23; > 78.3 µM (inactive) in the assay on NCI-H522; > 798 µM (inactive) in the assay on DMS-273; > 100 µM (inactive) in the assay on M19-MEL. In addition, the results for the GI50 with HOP-62 and in the assay with SF-268 were 41.8 µM (inactive) and 65.2 µM (inactive), respectively.
In the case of `COc1ccc2nc3ccccc3c(NCCCN(C)CCCl)c2c1`, the GI50 with NCI-H460 is 0.0791 µM (active); with OVCAR-8, 0.142 µM (active); with K562, 0.136 µM (active); in the assay on SK-OV-3, 0.406 µM (active); in the assay on UACC-62, 0.23 µM (active); with RPMI-8226, 0.0817 µM (active). Further, the GI50 in the assay with HL-60 is 0.0614 µM (active); with HOP-92, 0.185 µM (active); in the assay on Malme-3M, 0.449 µM (active); with SF-295, 0.371 µM (active); with TK-10, 0.859 µM (active); in the assay on KM-20L2, 0.17 µM (active). The GI50 was 0.521 µM (active) with SK-MEL-28; 0.202 µM (active) with PC-3; 0.135 µM (active) in the assay on NCI-H23; 0.101 µM (active) in the assay with NCI-H522; 0.153 µM (active) in the assay with DMS-273; 0.353 µM (active) with M19-MEL. For the same molecule, the GI50 with HOP-62 is 0.959 µM (active); in the assay on SF-268, 0.155 µM (active).
`CCc1cccc(CC)c1NC(=S)NC(=O)c1ccc(Br)cc1`: the GI50 was 17.7 µM (inactive) with NCI-H460; 54.5 µM (inactive) in the assay on OVCAR-8; 40.7 µM (inactive) with K562; 64.9 µM (inactive) with SK-OV-3; 19.7 µM (inactive) with UACC-62; 33.1 µM (inactive) in the assay on RPMI-8226. Also, the GI50 with HL-60 is 17.5 µM (inactive); with HOP-92 it was 18.5 µM (inactive); with Malme-3M, 18.4 µM (inactive); in the assay on SF-295 it was > 53 µM (inactive); with TK-10 it was 25.3 µM (inactive); with KM-20L2, 47.5 µM (inactive). Moreover, the GI50 with SK-MEL-28 is 55.1 µM (inactive); in the assay on PC-3, 24.3 µM (inactive); in the assay on NCI-H23, 29.6 µM (inactive); with NCI-H522, 17.6 µM (inactive); with DMS-273, 49 µM (inactive); with M19-MEL, 35.2 µM (inactive). Also, the GI50 was 32.4 µM (inactive) in the assay with HOP-62 and 45 µM (inactive) with SF-268.
Take `O=C(O)CC/C(=N\Nc1nsc2ccccc12)c1ccc(Cl)cc1`: the GI50 in the assay with NCI-H460 is 28.4 µM (inactive); in the assay on OVCAR-8 it was 43.5 µM (inactive); in the assay with K562, 23 µM (inactive); in the assay on SK-OV-3, 32.6 µM (inactive); with UACC-62, 19.8 µM (inactive); in the assay with RPMI-8226 it was 11 µM (inactive). The GI50 with HL-60 was 23.6 µM (inactive); with HOP-92, 24 µM (inactive); in the assay with Malme-3M, 45 µM (inactive); in the assay on SF-295, 32.8 µM (inactive); with TK-10, 46.9 µM (inactive); in the assay with KM-20L2, 41.1 µM (inactive). Further, the GI50 in the assay with SK-MEL-28 is 17.5 µM (inactive); with PC-3, 20.9 µM (inactive); in the assay on NCI-H23 it was 21.2 µM (inactive); in the assay with NCI-H522, 34.5 µM (inactive); in the assay on DMS-273, 20 µM (inactive); in the assay with M19-MEL, 35 µM (inactive). The GI50 in the assay on HOP-62 was 23.5 µM (inactive); in the assay on SF-268 it was 21.9 µM (inactive).
Regarding `CCCCCCCCCCCCCCCCCCN(C)CC(COC)OP(=O)([O-])OCC[N+](C)(C)C` (stereo not given), the GI50 with NCI-H460 is 0.851 µM (active); in the assay with OVCAR-8 it was 3.27 µM (inactive); with K562, 9.42 µM (inactive); in the assay on SK-OV-3 it was 11.2 µM (inactive); with UACC-62 it was 3.05 µM (inactive); in the assay on RPMI-8226, 0.635 µM (active). For the same molecule, the GI50 was 0.495 µM (active) with HL-60; 1.17 µM (inactive) in the assay on HOP-92; 11.7 µM (inactive) in the assay with Malme-3M; 1.07 µM (active) with SF-295; 1.03 µM (active) with TK-10; 2 µM (inactive) in the assay on KM-20L2. For the same molecule, the GI50 in the assay with SK-MEL-28 was 15.7 µM (inactive); with PC-3 it was 0.374 µM (active); with NCI-H23, 3.16 µM (inactive); in the assay with NCI-H522 it was 1.43 µM (inactive); in the assay on DMS-273, 0.625 µM (active); in the assay on M19-MEL, 2.75 µM (inactive). For the same molecule, the GI50 with HOP-62 is 1.72 µM (inactive); with SF-268, 1.48 µM (inactive).
For `N#CC(C#N)=C(N)/C(C#N)=C/c1ccc(O)c(O)c1`, the GI50 in the assay with NCI-H460 is 50.5 µM (inactive); with OVCAR-8, 40.5 µM (inactive); in the assay with K562, 48.8 µM (inactive); in the assay with SK-OV-3, > 100 µM (inactive); in the assay with UACC-62, 49 µM (inactive); in the assay on RPMI-8226, 71.3 µM (inactive). The GI50 is 22.6 µM (inactive) with HL-60; 43.6 µM (inactive) in the assay on HOP-92; > 100 µM (inactive) in the assay with Malme-3M; > 20.4 µM (inactive) in the assay with SF-295; > 100 µM (inactive) with TK-10; 25.1 µM (inactive) in the assay with KM-20L2. The GI50 is > 100 µM (inactive) with SK-MEL-28; 37.7 µM (inactive) in the assay on PC-3; > 100 µM (inactive) with NCI-H23; > 61.2 µM (inactive) in the assay on NCI-H522; 59.2 µM (inactive) in the assay with DMS-273; > 100 µM (inactive) in the assay with M19-MEL. The GI50 in the assay on HOP-62 was 15.5 µM (inactive); in the assay with SF-268, > 83.2 µM (inactive).
